Assay results reported in publication PMC7481839, “Switchable foldamer ion channels with antibacterial activity” (Chemical Science, 2020).
Where a SMILES comes first, the peptide text is derived from it.

Assay: Lucigenin assay of Cl− transport in vesicles
Assay type: biochemical
Settings: 10 µM compound, interior NaNO3 200 mM, exterior NaCl (2 M), 0.762 mM lipid, 25°C, first-order curve fit
Description: To confirm that chloride could pass through the bilayers, lucigenin assays[5a] were performed for 2, Cu(II)[1]Cl2 and Cu(II)[2]Cl2 (Fig. 5 and ESI, Fig. S10 ^†). The same lipids were used as for the HPTS assays and lucigenin was encapsulated with NaNO3 in the vesicles.
Figure S9: Ionophoric activity determined through an HPTS assay in the presence of NaCl (100 mM) for: 2 (10 µM) in the absence (pink inverted triangles) and presence of FCCP (20 µM, blue triangles) and Cu(II)[2]Cl2 (6 µM) in the absence (red circles) and presence of FCCP (20 µM, black squares). Base pulse at 1 min, TX-100 added at 7 min.
5.4 Preparation of large unilamellar vesicles for lucigenin assays […]
Lucigenin assays procedure and fluorescence normalisation were developed by a modification of published methods.10 An aliquot of the vesicle stock solution (100 μL) w as diluted to 1.9 mL with 200 mM NaNO 3 in water (pH = 7.4) (final lipid co ncentration in cuvette 0.762 mM). […] The cuvette was then placed into a Varian Cary Eclipse fluorescence spectrophotometer in the moderate stirring mode. The fluorescence emission at 505 nm was observed, resulting from excitation at 455 nm, over a period of seven minutes (420 seconds) at 25°C. […] The change in fluorescence was followed for six minutes before final lysis of the vesicles at seven minutes (420 s) by adding an aliquot of a 10 % v/v solution of Triton X-100 […]

CC(C)(NC(=O)C(C)(C)NC(=O)C(C)(C)NC(=O)C(C)(C)NC(=O)C(C)(C)n1cc(CN(Cc2ccccn2)Cc2ccccn2)nn1)C(=O)NC(C)(C)C(=O)NC(C)(C)C(=O)NC(C)(C)C(=O)OCC[Si](C)(C)C [foldamer 2] (HELM PEPTIDE1{[CC(C)(C(=O)[*:2])n1cc(CN(Cc2ccccn2)Cc2ccccn2)nn1].[Aib].[Aib].[Aib].[Aib].[Aib].[Aib].[Aib].[C[Si](C)(C)CCO[*:1]]}$$$$V2.0)
kobs of Cl− transport (lucigenin assay): 0.0052 s⁻¹
